Values of other authors in paper PMC7909736 (Pharmaceutical Research, 2021).

Conditions: share rate of 10 s^−1, room temperature

For `CC(=CCCCOCC(O)CO)CCCC(C)CCCC(C)C` (stereo not shown) [Formulation C17MGE, mono-O-(5,9, 13-trimethyl-4-tetradecenyl) glycerol ester], the Viscosity is given as 0.47 Pa·s.
